The results in this text go back to patent publication US20190110476A1, “NOVEL ISOTHIAZOLAMIDES, PROCESSES FOR THEIR PREPARATION AND THEIR USE AS FUNGICIDES” (priority 2014, published 2019).

Marks after values point to notes of the source that are not given here.

The nature of this data set: Measurement of LogP values by HPLC on reversed phase columns (EEC directive 79/831 Annex V.A8). Format: physicochemical. The note with it: for chromatographic logP: HPLC LC-UV, acidic range, 0.1% formic acid in water and acetonitrile as eluent. The protocol: The abbreviations and numerations of the substituent positions used in the context of the present invention and in the following Tables are explained in detail in the section Examples hereinafter. Also, the LogP values indicated in the following Tables are explained in detail in the section Examples hereinafter. In case LogP values for different diastereoisomers of a specific compound are […], said LogP values are […] by a “+”. […] Measurement of LogP values was performed according to EEC directive 79/831 Annex V.A8 by HPLC (High Performance Liquid Chromatography) on reversed phase columns with the following methods: […] Lambda-max-values were determined using UV-spectra from 200 nm to 400 nm and the peak values of the chromatographic signals

On to `O=Cc1c(N(Cc2ccccc2)Cc2ccccc2)nsc1C(=O)O` [E-VIII-006, 3-(dibenzylamino)-4-formyl-1,2-thiazole-5-carboxylic acid], for which the chromatographic logP is 3.21. Take `O=C(Nc1nsc(C(=O)O)c1Cl)c1ccc(F)cc1` [E-VIII-007]: the “LogP [a]” value is 1.02^[a]. As for `O=C(O)c1snc(N(Cc2ccccc2)Cc2ccccc2)c1C1CC1` [E-VIII-008, 4-cyclopropyl-3-(dibenzylamino)isothiazole-5-carboxylic acid], the chromatographic logP turned out to be 4.11. In turn, `O=C(O)c1snc(N(Cc2ccccc2)Cc2ccccc2)c1C(F)F` [E-VIII-009, 3-(dibenzylamino)-4-(difluoromethyl)-1,2-thiazole-5-carboxylic acid] returned a chromatographic logP of 3.78.

Regarding `O=C(O)c1snc(N(Cc2ccccc2)Cc2ccccc2)c1-c1ccc(F)cc1` [E-VIII-010], the “LogP [a]” value is 4.49^[a]. As to `Nc1nsc(C(=O)O)c1Cl` [E-VIII-012, 3-amino-4-chloroisothiazole-5-carboxylic acid], the chromatographic logP was -0.13. Consider `COc1ccc(CNc2cc(C(=O)O)sn2)cc1` [E-VIII-016], for which the “LogP [a]” value was 1.87^[a]. On to `Nc1nsc(C(=O)NC2CCCCC2)c1Cl` [I-001], for which the LogP is 2.10[a].

In the case of `Nc1nsc(C(=O)NCC2CCCCC2)c1Cl` [I-002], the LogP is 2.40[a]. Still for that read-out and setting: the result for `C[C@H](NC(=O)c1snc(N)c1Cl)C1CCCCC1` [I-003] reads 2.50[a]; that for `Nc1nsc(C(=O)NCc2ccccc2)c1Cl` [I-004], 1.69[a]; that for `Nc1cc(C(=O)NCC2CCCCC2)sn1` [I-005], 1.92[a]. The same measure, in the same setting: the figure for `C[C@H](NC(=O)c1cc(N)ns1)C1CCCCC1` [I-006] is 2.09[a]; for `Nc1cc(C(=O)NC2CCCCC2)sn1` [I-007] it is 1.49[a].

In the case of `Nc1cc(C(=O)NCc2ccccc2)sn1` [I-008], the LogP is 1.32[a]. Same read-out and setting: the figure for `Nc1nsc(C(=O)NCc2ccccc2Cl)c1Cl` [I-009] is 2.12[a]; for `Nc1nsc(C(=O)NCC2CCCOC2)c1Cl` (stereo not drawn) [I-010] it is 1.07[a]. On the same count and under the same terms, the result for `Nc1nsc(C(=O)NCC2CCOC2)c1Cl` (stereo not drawn) [I-011] reads 0.73[a].

`Nc1nsc(C(=O)NCC2CCOCC2)c1Cl` [I-012]: the LogP is 0.90[a].

As to `Nc1nsc(C(=O)NCC2CCCO2)c1Cl` (stereo not drawn) [I-013], the LogP is 1.02[a]. Same read-out and setting: the result for `Nc1nsc(C(=O)NCC2CCCCO2)c1Cl` (stereo not drawn) [I-014] reads 1.47[a]. On the same count and under the same terms, the figure for `Nc1nsc(C(=O)NCc2cc(F)ccc2F)c1Cl` [I-015] is 1.88[a]. Same read-out and setting: the result for `Nc1nsc(C(=O)NCc2ccc(Cl)cc2Cl)c1Cl` [I-018] reads 2.62[a]; that for `Nc1nsc(C(=O)NCc2cccc(Cl)c2Cl)c1Cl` [I-019], 2.49[a]; that for `Nc1nsc(C(=O)NCc2ccc(Cl)cc2)c1Cl` [I-020], 2.16[a]. Take `Nc1nsc(C(=O)NCc2cccc(Cl)c2)c1Cl` [I-021]: the LogP is 2.15[a]. Regarding `COc1cccc(CNC(=O)c2snc(N)c2Cl)c1` [I-022], the LogP was 1.75[a].

For the compound `Nc1nsc(C(=O)NC2(c3ccc(F)cc3)CC2)c1Cl` [I-023], the LogP is 2.02[a].

As to `Nc1nsc(C(=O)NCc2cc(F)cc(F)c2)c1Cl` [I-024], the LogP was 2.11[a]. The same measure, in the same setting: the result for `Nc1nsc(C(=O)NCc2ccc(F)cc2)c1Cl` [I-025] reads 1.83[a]; that for `Nc1nsc(C(=O)NCc2cccc(F)c2)c1Cl` [I-026], 1.84[a]; that for `Nc1nsc(C(=O)NCc2cc(Cl)cc(Cl)c2)c1Cl` [I-027], 2.63[a].

Consider `Nc1cc(C(=O)NCc2ccc(Cl)cc2)sn1` [I-028], for which the LogP is 1.75[a]. Still for that read-out and setting: the figure for `Nc1cc(C(=O)NCc2ccc(F)cc2)sn1` [I-029] is 1.27[a]. Same read-out and setting: the figure for `Nc1cc(C(=O)NCc2cc(F)ccc2F)sn1` [I-030] is 1.49[a]. On the same count and under the same terms, the figure for `Nc1cc(C(=O)NCc2ccc(F)cc2F)sn1` [I-031] is 1.56[a]; for `Cn1cc(CNC(=O)c2snc(N)c2Cl)cn1` [I-033] it is 0.59[a]; for `Cc1nn(C)cc1CNC(=O)c1snc(N)c1Cl` [I-034] it is 0.76[a].

Regarding `Nc1nsc(C(=O)NCc2cccnc2Cl)c1Cl` [I-036], the LogP is 1.22[a]. `Nc1nsc(C(=O)NCc2cncc(F)c2)c1Cl` [I-037]: the LogP is 0.92[a]. Regarding `Nc1nsc(C(=O)NCc2ccnc(F)c2)c1Cl` [I-038], the LogP was 1.04[a].

Regarding `Cc1ccnc(CNC(=O)c2snc(N)c2Cl)n1` [I-039], the LogP is 0.83[a]. Take `C[C@H](NC(=O)c1snc(NCc2ccccc2)c1Cl)C1CCCCC1` [I-040]: the LogP is 4.74[a]. Still for that read-out and setting: the result for `Cc1c(N)nsc1C(=O)NCc1ccc(F)cc1F` [I-041] reads 1.64[a]; that for `Cc1c(N)nsc1C(=O)NCC1CCCCC1` [I-042], 2.01[a]; that for `COc1ccc(CNc2nsc(C(=O)NCc3ccccc3F)c2Cl)cc1` [I-043], 3.46[a]. As to `COc1ccc(CNc2nsc(C(=O)NCC3CCCC3)c2Cl)cc1` [I-044], the LogP was 4.04[a]. Still for that read-out and setting: the figure for `COc1ccc(CNc2nsc(C(=O)NCC3CCCCCC3)c2Cl)cc1` [I-045] is 4.69[a]. Same read-out and setting: the result for `O=C(NC1CCCC2CCCCC21)c1snc(NCc2ccccc2)c1Cl` (stereo not drawn) [I-046] reads 5.23[a]; that for `O=C(NC1CCCC2CCCCC21)c1snc(NCc2ccccc2)c1NCc1ccccc1` (stereo not drawn) [I-047], 5.65[a]; that for `CC(C)(NC(=O)c1snc(NCc2ccccc2)c1Cl)C1CCCCC1` [I-048], 5.35[a]. `COc1ccc(CNC(=O)c2snc(N)c2C)cc1` [I-049]: the LogP is 1.42[a]. On the same count and under the same terms, the figure for `Cc1c(N)nsc1C(=O)NCc1ccc(F)cc1` [I-050] is 1.52[a]; for `Cc1c(N)nsc1C(=O)NCc1ccc(Cl)cc1` [I-051] it is 1.86[a]. Same read-out and setting: the result for `COc1ccc(CNC(=O)c2cc(N)ns2)cc1` [I-052] reads 1.28[a]. Same read-out and setting: the figure for `Nc1nsc(C(=O)N(Cc2ccc(F)cc2F)C2CC2)c1Cl` [I-053] is 2.62[a]; for `Nc1nsc(C(=O)NCC2CCCCCC2)c1Cl` [I-054] it is 2.86[a]; for `COc1ccc(CNc2nsc(C(=O)NCC3CCCCC3(C)C)c2Cl)cc1` (stereo not drawn) [I-056] it is 4.95[a]. For the compound `O=C(NCc1ccccc1F)c1snc(NC2CC2)c1Cl` [I-057], the LogP was 2.66[a].

As for `C#CCNc1nsc(C(=O)NCc2ccccc2F)c1Cl` [I-058], the LogP was 2.54[a]. Still for that read-out and setting: the result for `O=C(NCc1ccccc1F)c1snc(Nc2ccc(F)cc2)c1Cl` [I-059] reads 3.68[a]. Still for that read-out and setting: the figure for `COc1ccc(Nc2nsc(C(=O)NCc3ccccc3F)c2Cl)cc1` [I-060] is 3.46[a]; for `C[C@H](NC(=O)c1snc(NC2CC2)c1Cl)C1CCCCC1` [I-061] it is 3.75[a]. Regarding `C#CCNc1nsc(C(=O)N[C@@H](C)C2CCCCC2)c1Cl` [I-062], the LogP was 3.56[a]. The same measure, in the same setting: the result for `C[C@H](NC(=O)c1snc(Nc2ccc(F)cc2)c1Cl)C1CCCCC1` [I-063] reads 4.81[a]; that for `C[C@H](NC(=O)c1snc(Nc2ccccc2)c1Cl)C1CCCCC1` [I-064], 4.78[a]; that for `COc1ccc(CNc2nsc(C(=O)N[C@@H](C)C3CCCCC3)c2Cl)cc1` [I-065], 4.66[a]. Still for that read-out and setting: the figure for `C=CCNc1nsc(C(=O)N[C@@H](C)C2CCCCC2)c1Cl` [I-066] is 4.02[a]; for `O=C(NCc1ccccc1F)c1snc(Nc2ccccc2)c1Cl` [I-067] it is 3.63[a]. The same measure, in the same setting: the result for `COc1ccc(Nc2nsc(C(=O)N[C@@H](C)C3CCCCC3)c2Cl)cc1` [I-068] reads 4.59[a]. Turning to `O=C(NCc1ccccc1F)c1snc(NCc2ccccc2)c1Cl` [I-069], the LogP was 3.56[a]. Still for that read-out and setting: the figure for `COc1ccc(CNc2nsc(C(=O)N[C@H](C)C3CCCCC3)c2Cl)cc1` [I-070] is 4.56[a]; for `C=CCNc1nsc(C(=O)NCc2ccccc2F)c1Cl` [I-071] it is 2.89[a].

As to `COc1ccc(CN(C(=O)C(=O)N[C@H](C)C2CCCCC2)c2nsc(C(=O)N[C@H](C)C3CCCCC3)c2Cl)cc1` [I-072], the LogP was 4.54[a]. On the same count and under the same terms, the result for `Nc1nsc(C(=O)NCC2CCCC2)c1Cl` [I-073] reads 2.15[a]; that for `COc1ccc(CNc2nsc(C(=O)NC3CCCCC3(C)C)c2Cl)cc1` (stereo not drawn) [I-075], 4.64[a]; that for `COc1ccc(CNc2nsc(C(=O)NCC3C(C)CCCC3(C)C)c2Cl)cc1` (stereo not drawn) [I-076], 5.48[a]. Same read-out and setting: the figure for `C[C@@H](NC(=O)c1snc(N)c1Cl)C1CCCCC1` [I-077] is 2.78[a]; for `COc1ccc(CNc2nsc(C(=O)NCC3CC=CCC3)c2Cl)cc1` (stereo not drawn) [I-078] it is 3.90[a]; for `COc1ccc(CNc2nsc(C(=O)NCC3(C)CCCCC3)c2Cl)cc1` [I-079] it is 4.69[a].

As to `CC1(C)CCCCC1CNC(=O)c1snc(N)c1Cl` (stereo not drawn) [I-080], the LogP is 3.05[a]. Same read-out and setting: the result for `CC1CCCC(C)(C)C1CN(C(=O)c1snc(N)c1Cl)C1CC1` (stereo not drawn) [I-081] reads 4.08[a]; that for `CC1(C)CCCCC1NC(=O)c1snc(N)c1Cl` (stereo not drawn) [I-082], 2.66[a]. Same read-out and setting: the figure for `CC1CCCC(C)(C)C1CNC(=O)c1snc(N)c1Cl` (stereo not drawn) [I-083] is 3.54[a].

In the case of `COc1ccc(CNc2nsc(C(=O)NCC3=CCCCC3)c2Cl)cc1` [I-084], the LogP was 4.02[a]. Same read-out and setting: the result for `Nc1nsc(C(=O)NCC2CC=CCC2)c1Cl` (stereo not drawn) [I-085] reads 2.14[a]; that for `CC1(CNC(=O)c2snc(N)c2Cl)CCCCC1` [I-086], 2.84[a].

One may read the chromatographic logP as a lipophilicity value derived from retention on a column.
